Reference: patent US12473250B2, “Molecular design of new antibiotics and antibiotic adjuvants against MCR strains” (priority 2019, dated 2025)
≈ marks a conversion by molar mass, not a printed value. Like-named read-outs stand apart in the source and are kept apart here.

Experiments:
[1] = tested on: KLPN multi-drug resistant strains; experiment: MIC against multi-drug resistant strains (Table 5); type: cell-based, Klebsiella pneumonia; details: Klebsiella pneumoniae, alone, read-out: MIC
Experimental: (§1) MIC experiments of the antimicrobial agents were determined by a modified broth microdilution method in accordance with the Clinical and Laboratory Standards Institute (CLSI) guidelines using 96 well culture plates. In brief, serial dilutions of all plates were prepared at different concentrations (μg). The inoculum suspension was prepared by adding isolated colonies from a 18-20 hours on TSA plate into phosphate buffer (0.31 mM, pH 7.2) or in water for injection (BBraun) and adjusting the suspension to a turbidity equivalent to 0.5 McFarland Standard. Each well contained a final bacterial concentration of approximately 5×10^5 colony forming units (CFU)/mL. The plate was covered and incubated at 35° C. for 24 hours. […] For the microdilution plates, turbidity in wells can be measured at OD600 using TECAN infinite M200Pro. MIC was determined as […] concentration that gives a 99 percent inhibition.

[2] = tested on: ENT CLOACAE multi-drug resistant strains; experiment: MIC against multi-drug resistant strains (Table 5); type: cell-based, E. cloacae; details: Enterobacter cloacae, alone, read-out: MIC
Experimental: as §1

[3] = tested on: ACBA multi-drug resistant strains; experiment: MIC against multi-drug resistant strains (Table 5); type: cell-based, Acinetobacter baumannii; details: Acinetobacter baumannii
Experimental: as §1

[4] = tested on: various pathogens; experiment: organism not typed; type: cell-based
Experimental: The MICs of the individual drugs and LC compound in combinations were determined using the broth microdilution technique as recommended by the CLSI whereby the two anti-microbial agents were added in an equal amount. (e.g.: 50 μL of Colistin: 50 μL of LC compounds). Diluted media containing compounds and antibiotics will be serially diluted 2-fold, and LC compounds and antibiotics alone or in combination will be assayed at fixed synergy concentration. In all cases, the lowest concentration at which no visible growth occurred was be recorded to be the MIC value of individual and combined antibacterial agents. The results were obtained after 24 hours of incubation.
Using the combination of LC100 and colistin, the activity of a broad range of strains was further tested (Table 7).

[5] = tested on: MCR positive E. coli Clinical isolate 6083655967; type: in vivo; details: neutropenic mice, i.p. 1 hour after infection, 6 hours after treatment; colistin 10 mg/kg, LC100 50 mg/kg, meropenem 100 mg/kg, combination 50 + 10 mg/kg
Experimental: FIG. 21 refers to graphs showing the efficacy testing of combination of LC100 and Colistin in neutropenic mouse thigh infection model infected with MCR positive E. coli Clinical isolate 6083655967. Starting inoculum was 1.87×10^6, N=3. “Combination” refers to Colistin 10 mg/kg+LC100 50 mg/kg. Each treatment was done intraperitoneally 1 hour after infection. 6 hours after treatment, mouse thigh tissues were homogenized for viable CFU.
The combination of colistin and antimicrobial peptide (LC100) was tested against E. coli clinical isolate MCR-positive strain 6083655967 in a neutropenic mouse thigh infection model. C57BL/6 mice were rendered neutropenic by cyclophosphamide, dosed at 150 and 100 mg kg-1 delivered on days −4 and −1 prior to infection. Bacteria were suspended in sterile saline and adjusted to a concentration of ˜1.876×10^6 CFU per infection site (100 micro-liters) and injected intramuscularly into the right thigh of five mice per treatment group. At 1 h post infection, mice received colistin ([…], i.p. n=5), LC100 (50 mg kg-1, i.p. n=5), untreated (n=5), or the combination (n=5). Mice were euthanized 6 h after infection; thigh tissue was aseptically collected, homogenized, serially diluted in PBS and plated onto solid TSA supplemented plates. Plates were incubated overnight at 37° C. and colonies were quantified to determine bacterial load.
To evaluate the in vivo efficacy of the combination of LC100 and colistin, a neutropenic mouse thigh infection model was used. 30 mice were classed into 5 groups: control, colistin at 10 mg/kg, LC100 at 50 mg/kg, meropenem at 100 mg/kg and combination of 50 mg/kg of LC100 and 10 mg/kg of colistin. Each treatment was administered intraperitoneally 1 hour after infection. The starting inoculum was 1.87×10^6, and 6 hours after treatment, mouse thigh tissues were homogenized for viable CFU. […] As neutropenic mice were used in the study, the 1.2 log reduction in bacterial burden is due to the combination of LC100 and colistin rather than the immune system of the mouse.

[6] = tested on: PAE strains (CRE strains, colistin sensitive); experiment: MIC of polymyxin B or colistin alone (Table 4); type: cell-based, P. aeruginosa; parameters: unit: μg/mL
Experimental: as §1

[7] = tested on: EC strains (CRE strains, colistin sensitive); experiment: MIC of polymyxin B or colistin alone (Table 4); type: cell-based, E. coli; parameters: unit: μg/mL
Experimental: as §1

[8] = ATCC19606, strain ACBA ATCC 19606, alone, read-out: MIC
[9] = strain ACBA 1012, alone, read-out: MIC
[10] = strain ACBA 43357, alone, read-out: MIC
[11] = Escherichia coli, 6083655967 [MCR 1+, E. Coli]
[12] = Escherichia coli, 6093560257 [MCR 1+, E. Coli, NDM-1]
[13] = Escherichia coli, 6123520276 [MCR 1+, E. Coli]
[14] = Escherichia coli, 7023436560 [MCR 1+, E. Coli]
[15] = Escherichia coli, 7023444207 [MCR 1+, E. Coli]
[16] = Escherichia coli, 7023446108 [MCR 1−, E. Coli]
[17] = Escherichia coli, 7033607097 [MCR 1−, E. Coli]
[18] = Escherichia coli, 7103531927 [MCR 1+, E. Coli, KPC+]
[19] = Escherichia coli, 7113636863 [MCR 1+, E. Coli, NDM-1]

`NCC[C@H](O)C(=O)N[C@@H]1C[C@H](N)[C@@H](O[C@H]2O[C@H](CN)[C@@H](O)[C@H](O)[C@H]2O)[C@H](O)[C@H]1O[C@H]1O[C@H](CO)[C@@H](O)[C@H](N)[C@H]1O` [Amikacin] was tested, and the MIC ([1]; strain KLPN 8852) was 12.5 µg/mL (≈ 21.3 µM), the MIC ([1]; strain KLPN 15588) was over 50 µg/mL and the MIC ([1]; strain KLPN 24076) was 3.12 µg/mL (≈ 5.34 µM). It also gave an MIC ([1]; strain KLPN 27025) of 3.12 µg/mL (≈ 5.34 µM), an MIC ([2]; strain ENT CLOACAE 6780) of over 50 µg/mL and an MIC ([2]; strain ENT CLOACAE 21489) of 0.78 µg/mL (≈ 1.33 µM). The MIC ([2]; strain ENT CLOACAE 30063) was 25 µg/mL (≈ 42.7 µM), the MIC ([2]; strain ENT CLOACAE 44095) was 25 µg/mL (≈ 42.7 µM) and the MIC [3, 8] was 12.5 µg/mL (≈ 21.3 µM). It also gave an MIC ([3]; strain ACBA 1010, alone, read-out: MIC) of 1.56 µg/mL (≈ 2.66 µM), an MIC [3, 9] of over 50 µg/mL and an MIC [3, 10] of 50 µg/mL (≈ 85.4 µM).
Molecule `C[C@@H](O)[C@H]1C(=O)N2C(C(=O)O)=C(SCCN=CN)C[C@H]12` [Imipenem] has an MIC ([1]; strain KLPN 8852) of over 50 µg/mL, an MIC ([1]; strain KLPN 15588) of over 50 µg/mL and an MIC ([1]; strain KLPN 24076) of over 50 µg/mL. For the same molecule, the MIC ([1]; strain KLPN 27025) was over 50 µg/mL, the MIC ([4]; ACBA 1010 (CI)) was 25 µg/mL and the MIC ([4]; ACBA ATCC 19606) was 25 µg/mL. It also gave an MIC ([4]; ACBA DR 43357) of over 50 µg/mL, an MIC [4, 11] of 0.0975 µg/mL and an MIC [4, 12] of 12.5 µg/mL. It also gave an MIC [4, 13] of under 0.0975 µg/mL, an MIC [4, 14] of under 0.0975 µg/mL and an MIC [4, 15] of 0.0975 µg/mL. It also gave an MIC [4, 16] of 0.0975 µg/mL, an MIC [4, 17] of 0.195 µg/mL and an MIC [4, 18] of 6.25 µg/mL. For the same molecule, the MIC [4, 19] was 12.5 µg/mL, the MIC ([4]; KLPN CRE 15588) was over 50 µg/mL and the MIC ([4]; KLPN CRE 27025) was over 50 µg/mL. For the same molecule, the MIC ([4]; PAE DM 4150) was 3.12 µg/mL, the MIC ([4]; PAE DM 23155) was 0.78 µg/mL and the MIC ([4]; PAE DM 23257) was 0.78 µg/mL. The MIC ([4]; PAE DM 23376) was 1.56 µg/mL, the MIC ([4]; PAE DR 4877) was 1.56 µg/mL and the MIC ([4]; PAE DR 5790) was 6.25 µg/mL. The MIC ([4]; PAE DU 14476) was over 25 µg/mL, the MIC ([2]; strain ENT CLOACAE 6780) was over 50 µg/mL and the MIC ([2]; strain ENT CLOACAE 21489) was over 50 µg/mL. For the same molecule, the MIC ([2]; strain ENT CLOACAE 30063) was over 50 µg/mL, the MIC ([2]; strain ENT CLOACAE 44095) was over 50 µg/mL and the MIC [3] was 12.5 µg/mL (≈ 41.8 µM). The MIC [3, 8] was 25 µg/mL (≈ 83.5 µM), the MIC [3, 9] was over 50 µg/mL and the MIC [3, 10] was over 50 µg/mL.
`C[C@@H](O)[C@H]1C(=O)N2C(C(=O)O)=C(S[C@@H]3CN[C@H](C(=O)N(C)C)C3)[C@H](C)[C@H]12` [meropenem] showed an MIC ([4]; ACBA 1010 (CI)) of 1.56 µg/mL, an MIC [4, 11] of under 0.0975 µg/mL and an MIC [4, 12] of over 50 µg/mL. It also gave an MIC [4, 13] of under 0.0975 µg/mL, an MIC [4, 14] of under 0.0975 µg/mL and an MIC [4, 15] of under 0.0975 µg/mL. For the same molecule, the MIC [4, 16] was under 0.0975 µg/mL, the MIC [4, 17] was under 0.0975 µg/mL and the MIC [4, 18] was 25 µg/mL. It also gave an MIC [4, 19] of 50 µg/mL, an MIC ([4]; Escherichia coli, E. Coli CRE 11804) of over 25 µg/mL and an MIC ([4]; Escherichia coli, E. Coli CRE 17232, ⅙ MHB) of under 0.195 µg/mL. It also gave an MIC ([4]; Escherichia coli, E. Coli CRE 17528) of 1.56 µg/mL, an MIC ([4]; KLPN CRE 7955) of over 25 µg/mL and an MIC ([4]; KLPN CRE 16260) of over 50 µg/mL. The MIC ([4]; KLPN CRE 27025) was over 50 µg/mL, the MIC ([4]; KLPN CRE 55301) was 0.39 µg/mL and the MIC ([4]; PAE DM 4150) was 1.56 µg/mL. The MIC ([4]; PAE DM 23155) was 0.195 µg/mL, the MIC ([4]; PAE DM 23257) was 0.78 µg/mL and the MIC ([4]; PAE DM 23376) was 0.39 µg/mL. It also gave an MIC ([4]; PAE DR 4877) of 1.56 µg/mL, an MIC ([4]; PAE DR 5790) of 6.25 µg/mL and an MIC ([4]; PAE DU 14476) of over 25 µg/mL. The “reduction in bacterial burden” value [5] was 2 log.
For Polymyxin B, the “MIC (antibiotic alone)” value ([6]; strain PAE 4877) was 1.56, the “MIC (antibiotic alone)” value ([6]; strain PAE 5790) was 1.56 and the “MIC (antibiotic alone)” value ([6]; strain PAE 14476) was 1.56. The “MIC (antibiotic alone)” value ([7]; strain EC 17232) was 0.195, the “MIC (antibiotic alone)” value ([7]; strain EC 17528) was 0.78 and the “MIC (antibiotic alone)” value ([7]; strain EC 19963) was 1.56.
